Source: patent publication US20130090327A1, “Inhibitors of Protein Tyrosine Kinase Activity” (METHYLGENE INC., priority 2011, published 2013)
Values joined by “and” are separate entries in the source; they are usually repeats but may differ in a detail not shown here. Equal entries are not always repeated. Values belong to the compound of their own block, whether it stands above or below them.

Experiments:
[1] = test system: choroidal neovascularization (CNV); experiment: In Vivo Choroidal Neovascularization (CNV) Model; parameters: species or system Brown-Norway rats; conditions: for CNV area, average: group average, Day 10, rat; for CNV area, individual animal: injection on Day 3, measured Day 10, rat; for CNV area % of control / inhibition (CNV area): versus vehicle group, rat
Source text: In Vivo Choroidal Neovascularization (CNV) Model
This test measures the capacity of compounds to inhibit CNV progression. CNV is the main cause of severe vision loss in patients suffering from age-related macular degeneration (AMD).
Male Brown-Norway rats (Charles River Japan Co., Ltd.) were used in these studies.
Rats were anesthetized by intraperitoneal injection of pentobarbital, and the right pupil was dilated with 0.5% tropicamide and 0.5% phenylephrine hydrochloride. The right eye received 6 laser burns between retinal vessels using a slit lamp delivery system of Green laser Photocoagulator (Nidex Inc., Japan), and microscope slide glass with 10 mg/mL hyaluronic acid (SIGMA) used as a contact lens. The laser power was 200 mW for 0.1 second and spot diameter was 100 μm. At the time of laser burn, bubble production was observed; which is an indication of rupture of Bruch's membrane which is important for CNV generation.
After animals were anesthetized, and the right pupil dilated (as mentioned above), the right eye of the animal received the compound or vehicle by an injection (3 μL/eye) at doses of 0.3 to 30 nmol/eye on Day 3. The compounds were dissolved or suspended in CBS, PBS, or other adequate vehicles before injection.
On Day 10, the animals were anesthetized with ether, and high molecular weight fluorescein isothiocyanate (FITC)-dextran (SIGMA, 2×106 MW) was injected via a tail vein (20 mg/rat). About 30 min after FITC-dextran injection, animals were euthanized by ether or carbon dioxide, and the eyes were removed and fixed with 10% formaline neutral buffer solution. After over 1 hour of fixation, RPE-choroid-sclera flat mounts were obtained by removing comea, lens and retina from the eyeballs. The flat mounts were mounted in 50% glycerol on a microscope slide, and the portion burned by laser was photographed using a fluorescence microscope (Nikon Corporation, excitation filter: 465-495 nm, absorption filter: 515-555 nm). The CNV area was obtained by measurement of hyper-fluorescence area observed on the photograph using Scion image.
The average CNV area of 6 burns was used as an individual value of CNV area, and the average CNV area of compound treated group was compared with that of the vehicle-treated group.

[2] = molecular target: T1, VEGFR2 (KDR) (Homo sapiens, UniProt P35968); experiment: In Vitro Receptor Tyrosine Kinase Assay (VEGF Receptor KDR); format: biochemical; conditions: recombinant GST-VEGFR2 806-1356, DELFIA assay, ATP 0.6 uM, enzyme 5 nM; read-out: VEGFR_IC50_UM
T1 construct: made in house; host or cells: Sf9 cells (Spodoptera frugiperda), baculovirus (Bac-to-Bac)
T1 sequence (P35968 806-1356): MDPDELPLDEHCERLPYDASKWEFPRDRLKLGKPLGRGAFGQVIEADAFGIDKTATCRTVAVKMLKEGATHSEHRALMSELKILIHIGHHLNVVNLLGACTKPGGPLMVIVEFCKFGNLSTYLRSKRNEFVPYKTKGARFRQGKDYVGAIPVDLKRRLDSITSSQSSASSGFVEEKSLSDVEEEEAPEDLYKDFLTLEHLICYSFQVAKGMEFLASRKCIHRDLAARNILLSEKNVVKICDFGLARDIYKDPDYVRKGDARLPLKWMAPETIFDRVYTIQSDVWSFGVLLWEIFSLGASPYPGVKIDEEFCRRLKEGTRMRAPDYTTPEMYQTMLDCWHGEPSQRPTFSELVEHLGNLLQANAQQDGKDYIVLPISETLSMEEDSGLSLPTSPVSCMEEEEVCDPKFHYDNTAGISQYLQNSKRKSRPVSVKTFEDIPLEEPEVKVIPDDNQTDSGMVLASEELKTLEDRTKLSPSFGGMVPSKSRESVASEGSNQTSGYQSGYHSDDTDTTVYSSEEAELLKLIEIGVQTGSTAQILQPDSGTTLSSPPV
Source text: In Vitro Receptor Tyrosine Kinase Assay (VEGF Receptor KDR)
This test measures the ability of compounds to inhibit the enzymatic activity of recombinant human VEGF receptor enzymatic activity.
A 1.6-kb cDNA corresponding to the catalytic domain of VEGFR2 (KDR) (Genbank accession number AF035121 amino acid 806 to 1356) is cloned into the Pst I site of the pDEST20 Gateway vector (Invitrogen) for the production of a GST-tagged version of that enzyme. This construct is used to generate recombinant baculovirus using the Bac-to-Bac™ system according to the manufacturer's instructions (Invitrogen).
The GST-VEGFR2806-1356 protein is expressed in Sf9 cells (Spodoptera frugiperda) upon infection with recombinant baculovirus construct. Briefly, Sf9 cells grown in suspension and maintained in serum-free medium (Sf900 II supplemented with gentamycin) at a cell density of about 2×10^6 cells/ml are infected with the above-mentioned viruses at a multiplicity of infection (MOI) of 0.1 during 72 hours at 27° C. with agitation at 120 rpm on a rotary shaker. Infected cells are harvested by centrifugation at 398 g for 15 min. Cell pellets are frozen at […] until purification is performed.
All steps described in cell extraction and purification are performed at 4° C. Frozen Sf9 cell pellets infected with the GST-VEGFR2806-1356 recombinant baculovirus are thawed and gently resuspended in Buffer A (PBS pH 7.3 supplemented with 1 μg/ml pepstatin, 2 μg/ml Aprotinin and leupeptin, 50 μg/ml PMSF, 50 μg/ml TLCK and 10 μM E64 and 0.5 mM DTT) using 3 ml of buffer per gram of cells. Suspension is Dounce homogenized and 1% Triton X-100 is added to the homogenate after which it is centrifuged at 22500 g, 30 min., 4° C. The supernatant (cell extract) is used as starting material for purification of GST-VEGFR2806-1356.
The supernatant is loaded onto a GST-agarose column (Sigma) equilibrated with PBS pH 7.3. Following a four column volume (CV) wash with PBS pH 7.3+1% Triton X-100 and 4 CV wash with buffer B (50 mM Tris pH 8.0, 20% glycerol and 100 mM NaCl), bound proteins are step eluted with 5 CV of buffer B supplemented with 5 mM DTT and 15 mM glutathion. GST-VEGFR2806-1356 enriched fractions from this chromatography step are pooled based on U.V. trace i.e. fractions with high O.D.280. Final GST-VEGFR2806-1356 protein preparations concentrations are about 0.7 mg/ml with purity approximating 70%. Purified GST-VEGFR2806-1356 protein stocks are aliquoted and frozen at −80° C. prior to use in enzymatic assay.
Inhibition of VEGFR/KDR is measured in a DELFIA™ assay (Perkin Elmer). The substrate poly(Glu4,Tyr) is immobilized onto black high-binding polystyrene 96-well plates. The coated plates are washed and stored at 4° C. During the assay, the enzyme is pre-incubated with inhibitor and Mg-ATP on ice in polypropylene 96-well plates for 4 minutes, and then transferred to the coated plates. The subsequent kinase reaction takes place at 30° C. for 10-minutes. ATP concentrations in the assay are 0.6 uM for VEGFR/KDR (2× the Km). Enzyme concentration is 5 nM. After incubation, the kinase reactions are quenched with EDTA and the plates are washed. Phosphorylated product is detected by incubation with Europium-labeled anti-phosphotyrosine MoAb. After washing the plates, bound MoAb is detected by time-resolved fluorescence in a Gemini SpectraMax reader (Molecular Devices). Compounds are evaluated over a range of concentrations, and IC50 values (concentration of compounds giving 50% inhibition of enzymatic activity) are determined.

Structure (SMILES): COCCN(Cc1ccc(-c2cc3nccc(Oc4ccc(Nc5nc6cc(Cl)ccc6[nH]5)cc4F)c3s2)nc1)C(C)=O [Compound 64]
CNV area, average ([1]; 0.3 nmol/eye): 0.085 mm^2
CNV area, individual animal ([1]; 0.3 nmol/eye): 0.091 mm^2 and 0.094 mm^2 and 0.045 mm^2 and 0.050 mm^2 and 0.116 mm^2 and 0.147 mm^2 and 0.069 mm^2 and 0.084 mm^2 and 0.072 mm^2
CNV area % of control ([1]; 0.3 nmol/eye): 105.6%
inhibition (CNV area) ([1]; 0.3 nmol/eye): −5.6
CNV area, average ([1]; 1 nmol/eye): 0.077 mm^2
CNV area, individual animal ([1]; 1 nmol/eye): 0.045 mm^2 and 0.092 mm^2 and 0.101 mm^2 (2×) and 0.088 mm^2 and 0.061 mm^2 and 0.109 mm^2 and 0.056 mm^2 and 0.040 mm^2
CNV area % of control ([1]; 1 nmol/eye): 95.3%
inhibition (CNV area) ([1]; 1 nmol/eye): 4.7
CNV area, average ([1]; 3 nmol/eye): 0.065 mm^2
CNV area, individual animal ([1]; 3 nmol/eye): 0.070 mm^2 (2×) and 0.019 mm^2 and 0.081 mm^2 and 0.084 mm^2 and 0.062 mm^2 and 0.056 mm^2 and 0.086 mm^2 and 0.054 mm^2
CNV area % of control ([1]; 3 nmol/eye): 80.0%
inhibition (CNV area) ([1]; 3 nmol/eye): 20.0
CNV area, average ([1]; 10 nmol/eye): 0.045 mm^2
CNV area, individual animal ([1]; 10 nmol/eye): 0.030 mm^2 and 0.003 mm^2 and 0.051 mm^2 and 0.058 mm^2 and 0.064 mm^2 and 0.035 mm^2 and 0.097 mm^2 and 0.039 mm^2 and 0.032 mm^2
CNV area % of control ([1]; 10 nmol/eye): 56.2%
inhibition (CNV area) ([1]; 10 nmol/eye): 43.8
CNV area, average ([1]; 30 nmol/eye): 0.036 mm^2
CNV area, individual animal ([1]; 30 nmol/eye): 0.047 mm^2 and 0.031 mm^2 and 0.036 mm^2 and 0.048 mm^2 and 0.037 mm^2 and 0.027 mm^2 (2×) and 0.051 mm^2 and 0.019 mm^2
CNV area % of control ([1]; 30 nmol/eye): 44.4%
inhibition (CNV area) ([1]; 30 nmol/eye): 55.6
IC50 [2]: 31 nM

Structure (SMILES): COCCN(Cc1ccc(-c2cc3nccc(Oc4ccc(NC(=O)NC5COC5)cc4F)c3s2)nc1)C(C)=O [Compound 106]
IC50 [2]: 12 nM

Structure (SMILES): CN(C)[C@H]1CCN(C(=O)c2cc3nccc(Oc4ccc(NC(=O)NC5COC5)cc4F)c3s2)C1 [Compound 107]
IC50 [2]: 56 nM

Structure (SMILES): COCCN(Cc1ccc(-c2cc3nccc(Oc4ccc(NC(=O)NC5COC5)c(F)c4F)c3s2)nc1)C(=O)OC(C)(C)C [Compound 108]
IC50 [2]: 31 nM

Structure (SMILES): COCCN(Cc1ccc(-c2cc3nccc(Oc4ccc(NC(=O)NC5COC5)c(F)c4F)c3s2)nc1)C(C)=O [Compound 109]
IC50 [2]: 11 nM

Next, values leading:

IC50 [2]: 17 nM
Structure (SMILES): CC(C)(C)OC(=O)N1CC(NC(=O)Nc2ccc(Oc3ccnc4cc(-c5ccc(CN6CCCC6=O)cn5)sc34)c(F)c2)C1 [Compound 110]

IC50 [2]: 59 nM
Structure (SMILES): CC(C)(C)OC(=O)N1CC(NC(=O)Nc2ccc(Oc3ccnc4cc(-c5ccc(CN6CCOC6=O)cn5)sc34)c(F)c2)C1 [Compound 111]

IC50 [2]: 37 nM
Structure (SMILES): CC(=O)N1CC(NC(=O)Nc2ccc(Oc3ccnc4cc(-c5ccc(CN6CCCC6=O)cn5)sc34)c(F)c2)C1 [Compound 112, 1-(1-Acetylazetidin-3-yl)-3-(3-fluoro-4-(2-(5-((2-oxopyrrolidin-1-yl)methyl)pyridin-2-yl)thieno[3,2-b]pyridin-7-yloxy)phenyl)urea]

IC50 [2]: 95 nM
Structure (SMILES): CC(=O)N1CC(NC(=O)Nc2ccc(Oc3ccnc4cc(-c5ccc(CN6CCOC6=O)cn5)sc34)c(F)c2)C1 [Compound 113, 1-(1-Acetylazetidin-3-yl)-3-(3-fluoro-4-(2-(5-((2-oxooxazolidin-3-yl)methyl)pyridin-2-yl)thieno[3,2-b]pyridin-7-yloxy)phenyl)urea]
